US5089497A, “Substituted piperazines as central nervous system agents” (Warner-Lambert Company, priority 1990, dated 1992)

Key:
[1] = system: Locomotor Activity in Mice; test: Inhibition of locomotor activity in mice; type: in vivo; settings: Mus musculus, IP
Description: The above test methods are incorporated herein by reference.

Brain Dopamine Synthesis = test: Reversal of brain dopamine synthesis in rats (inhibition of dopamine synthesis); type: in vivo; settings: at 10 mg/kg, IP
Method: (§1) The compounds of Formula I are valuable dopaminergic agents. […] Thus, the compounds of Formula I were tested for their ability to inhibit locomotor activity in mice according to the assay described by J. R. McLean, et al, Pharmacology, Biochemistry and Behavior, Volume 8, pages 97-99 (1978); for their ability to inhibit [^3 H]spiroperidol binding in a receptor assay described by D. Grigoriadis and P. Seeman, Journal of Neurochemistry, Volume 44, pages 1925-1935 (1985); and for their ability to inhibit dopamine synthesis in rats according to the protocol described by J. R. Walters and R. H. Roth, Naunyn-Schmiedeberg's Archives of Pharmacology, Volume 296, pages 5-14 (1976). The above test methods are incorporated herein by reference. The data in the table show the dopaminergic activity of representative compounds of Formula I.

[2] = biological target: T1, [^3 H]Spiroperidol Binding (Homo sapiens, UniProt P14416); test: Inhibition of [^3 H]spiroperidol binding in a receptor assay
T1 construct: from tissue; host or cells: brain (striatum) membranes
Method: as §1

T1 sequence (P14416 whole entry): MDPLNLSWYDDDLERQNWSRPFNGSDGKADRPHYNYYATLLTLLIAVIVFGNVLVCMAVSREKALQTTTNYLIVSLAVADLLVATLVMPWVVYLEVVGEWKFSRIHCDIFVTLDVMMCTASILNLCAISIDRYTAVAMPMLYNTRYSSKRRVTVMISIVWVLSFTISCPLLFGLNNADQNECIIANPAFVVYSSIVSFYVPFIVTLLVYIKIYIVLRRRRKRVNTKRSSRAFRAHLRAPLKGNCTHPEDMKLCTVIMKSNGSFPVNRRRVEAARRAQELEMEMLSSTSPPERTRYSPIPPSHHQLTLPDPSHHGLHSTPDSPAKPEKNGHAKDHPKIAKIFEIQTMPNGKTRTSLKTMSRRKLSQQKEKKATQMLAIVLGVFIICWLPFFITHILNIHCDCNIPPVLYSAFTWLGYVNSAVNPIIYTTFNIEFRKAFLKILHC

## c1ccc(N2CCN(CCCc3cccnc3)CC2)nc1 [Example 1, 1-(2-Pyridinyl)-4-[3-(3-pyridinyl)propyl]piperazine]
[1]
  ED50: 3.1 mg/kg

## O=C(CCCN1CCN(c2ccccn2)CC1)c1cccnc1 [Example 2, 1-(3-Pyridinyl)-4-[4-(2-pyridinyl)-1-piperazinyl]-1-butanone]
[1]
  ED50: 6.3 mg/kg
Brain Dopamine Synthesis
  % Reversal of Brain Dopamine Synthesis in Rats: 43%
[2]
  IC50: 2870 nM

## O=C(CCCN1CCN(c2ccccn2)CC1)c1ccncc1 [Example 4, 1-(4-Pyridinyl)-4-[4-(2-pyridinyl)-1-piperazinyl]-1-butanone]
[1]
  ED50: 7.6 mg/kg
Brain Dopamine Synthesis
  % Reversal of Brain Dopamine Synthesis in Rats: 35%
[2]
  IC50: 2130 nM

## O=C(CCCN1CCN(c2ccccn2)CC1)c1cnc2ccccc2c1 [Example 6, 1-(3-Quinolinyl)-4-[4-(2-pyridinyl)-1-(piperazinyl)]-1-butanone]
[1]
  ED50: 2.8 mg/kg
[2]
  IC50: 486 nM

## O=C(CCCN1CCN(c2ccccn2)CC1)c1ccnc2ccccc12 [Example 7, 1-(4-Quinolinyl)-4-[4-(2-pyridinyl)-1-piperazinyl]-1-butanone]
[1]
  ED50: 13 mg/kg

## c1ccc(N2CCN(CCCCc3cccnc3)CC2)nc1 [Example 8, 1-(2-Pyridinyl)-4-[4-(3-pyridinyl)butyl]piperazine]
[1]
  ED50: 2.7 mg/kg
Brain Dopamine Synthesis
  % Reversal of Brain Dopamine Synthesis in Rats: 67%

## c1ccc(N2CCN(CCCCc3ccncc3)CC2)nc1 [Example 9]
[1]
  ED50: 4 mg/kg
Brain Dopamine Synthesis
  % Reversal of Brain Dopamine Synthesis in Rats: 79%
[2]
  IC50: 835 nM

## c1cnc(N2CCN(CCCCc3ccncc3)CC2)nc1 [Example 10, 2-[4-[4-(4-Pyridinyl)butyl]-1-piperazinyl]pyrimidine]
[1]
  ED50: 10.1 mg/kg
Brain Dopamine Synthesis
  % Reversal of Brain Dopamine Synthesis in Rats: 35%
[2]
  IC50: 4180 nM

## c1ccc(N2CCN(CCCCc3cnc4ccccc4c3)CC2)nc1 [Example 11]
[1]
  ED50: 2.2 mg/kg
Brain Dopamine Synthesis
  % Reversal of Brain Dopamine Synthesis in Rats: 100%
[2]
  IC50: 155 nM

## c1cnc(N2CCN(CCCCc3cnc4ccccc4c3)CC2)nc1 [Example 12, 3-[4-[4-(2-Pyrimidinyl)-1-piperazinyl]butyl]quinoline]
[1]
  ED50: 1.2 mg/kg

## c1ccc(N2CCN(CCCCc3ccnc4ccccc34)CC2)nc1 [Example 13, 4-[4-[4-(2-Pyridinyl)-1-piperazinyl]butyl]quinoline]
[1]
  ED50: 3.2 mg/kg
[2]
  IC50: 279 nM
